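All cell lines were grown in 96-well plates and treated with compound for 48 hours. GI50 marks 50% less growth.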 Activity calls are given as the source filed them. No stated cut-off is given here; in the data, active = GI50 up to about 1.1 µM and inactive = higher.
Experiments:
Assay in all cases: growth of human tumour cells (NCI), 48 h
A549 = tested on: A549
HT-29 = tested on: HT-29
MOLT-4 = tested on: MOLT-4
UACC-62 = tested on: UACC-62
SW-620 = tested on: SW-620
K562 = tested on: K562
SF-539 = tested on: SF-539
SN12C = tested on: SN12C
NCI-H460 = tested on: NCI-H460
MDA-N = tested on: MDA-N
TK-10 = tested on: TK-10
MCF7 = tested on: MCF7
SF-295 = tested on: SF-295
Hs-578T = tested on: Hs-578T
HL-60 = tested on: HL-60
HOP-92 = tested on: HOP-92
786-0 = tested on: 786-0
SK-MEL-28 = tested on: SK-MEL-28
A498 = tested on: A498
OVCAR-8 = tested on: OVCAR-8

SMILES	GI50 (A549)	GI50 (HT-29)	GI50 (MOLT-4)	GI50 (UACC-62)	GI50 (SW-620)	GI50 (K562)	GI50 (SF-539)	GI50 (SN12C)	GI50 (NCI-H460)	GI50 (MDA-N)	GI50 (TK-10)	GI50 (MCF7)	GI50 (SF-295)	GI50 (Hs-578T)	GI50 (HL-60)	GI50 (HOP-92)	GI50 (786-0)	GI50 (SK-MEL-28)	GI50 (A498)	GI50 (OVCAR-8)
CSc1ccc(-c2cc(-c3nc4ccccc4[nH]3)nc(N)c2C#N)cc1	23.1 µM (inactive)	21.9 µM (inactive)	8.39 µM (inactive)	12.3 µM (inactive)	31.3 µM (inactive)	18.4 µM (inactive)	23.6 µM (inactive)	25.8 µM (inactive)	22 µM (inactive)	20.7 µM (inactive)	31.6 µM (inactive)	15.6 µM (inactive)	21.9 µM (inactive)	24.7 µM (inactive)	20 µM (inactive)	8.55 µM (inactive)	26.1 µM (inactive)	20.2 µM (inactive)	15 µM (inactive)	31.6 µM (inactive)
O=[N+]([O-])/C(C(Cl)=C(Cl)Cl)=C(/Br)SCc1ccccc1	5.85 µM (inactive)	2.11 µM (inactive)	0.26 µM (active)	3.42 µM (inactive)	1.63 µM (inactive)	0.467 µM (active)	7.4 µM (inactive)	2.27 µM (inactive)	7.13 µM (inactive)	1.87 µM (inactive)	3.08 µM (inactive)	2.84 µM (inactive)	15.9 µM (inactive)	11.7 µM (inactive)	0.222 µM (active)	1.77 µM (inactive)	2.1 µM (inactive)	1.89 µM (inactive)	7.01 µM (inactive)	2.61 µM (inactive)
CN(C)c1ccc(/N=N/c2ccncc2)cc1	> 100 µM (inactive)	95.1 µM (inactive)	39.8 µM (inactive)	87.5 µM (inactive)	> 100 µM (inactive)	43.5 µM (inactive)	> 100 µM (inactive)	> 100 µM (inactive)	> 100 µM (inactive)	46 µM (inactive)	> 100 µM (inactive)	40.8 µM (inactive)	> 100 µM (inactive)	> 100 µM (inactive)	> 100 µM (inactive)	17.6 µM (inactive)	> 100 µM (inactive)	> 100 µM (inactive)	> 100 µM (inactive)	> 100 µM (inactive)
